# Tests used:
# [1] = (§1) AUC in Sprague-Dawley rat plasma at 10 mg/kg, po by LC-MS/MS analysis; type: ADME, organism-based; set-up: dose 10 mg/kg, route oral; details: Sprague-Dawley, plasma
# [2] = (§2) Oral bioavailability in Sprague-Dawley rat plasma at 10 mg/kg by LC-MS/MS analysis; type: ADME, organism-based; details: Sprague-Dawley, plasma
# [3] = Clearance in Sprague-Dawley rat plasma at 1 mg/kg, iv and 10 mg/kg, po by LC-MS/MS analysis; type: ADME, organism-based
# NFS-60 = assay: Antitumor activity against mouse M-NFS-60 cells xenografted in CD-1 nude mouse assessed as inhibition of tumor growth measured after 4 days of tumor implantation; type: functional, cell-based
# [4] = Aqueous solubility of the compound in water; type: physicochemical
# Rattus norvegicus [5] = assay: as §1; type: ADME, organism-based; set-up: dose 10 mg/kg, route oral; details: in vivo
# Rattus norvegicus [6] = assay: as §2; type: ADME, organism-based; details: in vivo
AUC [1],bioavailability [2],clearance [3],SMILES,further results
5 µM·h,22%,15 mL/min/kg,CC(C)(C)c1cc(NC(=O)Nc2ccc(NC(=O)c3ccc(OC4CCN(C(C)(C)C)CC4)cn3)cc2)no1,–
0.9 µM·h,9.9%,37.6 mL/min/kg,CCN1CCC(c2ccc(C(=O)Nc3ccc(NC(=O)Nc4cc(C(C)(C)C)on4)cc3)nc2)CC1,–
3.5 µM·h,17.5%,16 mL/min/kg,CC(C)N1CCC(Oc2ccc(C(=O)Nc3ccc(NC(=O)Nc4cc(C(C)(C)C)on4)cc3)nc2)CC1,–
–,–,–,CN1C(C)(C)CC(Oc2ccc(C(=O)Nc3ccc(NC(=O)Nc4cc(C(C)(C)C)on4)cc3)nc2)CC1(C)C,inhibition (NFS-60): Dose-dependent effect
1.4 µM·h,12%,24 mL/min/kg,CCN1CCC(Cc2ccc(C(=O)Nc3ccc(NC(=O)Nc4cc(C(C)(C)C)on4)cc3)nc2)CC1,–
0.4 µM·h,3%,35.8 mL/min/kg,CC(C)(C)c1cc(NC(=O)Nc2ccc(NC(=O)c3cc(OC4CCNCC4)ccn3)cc2)no1,–
–,–,–,CCN1C(C)(C)CC(Oc2ccc(C(=O)Nc3ccc(NC(=O)Nc4cc(C(C)(C)C)on4)cc3)nc2)CC1(C)C.CS(=O)(=O)O,solubility [4]: > 1000 µg/mL
–,–,–,CCN1CCC(Oc2ccc(C(=O)Nc3ccc(NC(=O)Nc4cc(C(C)(C)C)on4)cc3)nc2)CC1,inhibition (NFS-60): Dose-dependent effect
–,–,–,CC(C)(C)c1cc(NC(=O)Nc2ccc(NC(=O)c3ccc(OC4CCNCC4)cn3)cc2)no1,AUC (Rattus norvegicus [5]): 1.6 µM·h; F (Rattus norvegicus [6]): 1%
